For assay [1], the system named is HEK293 embryonic kidney cells. Description: MTT cell viability assay, HEK293. It counts as cell-based. The note with it: Homo sapiens, read-out: IC50 (μM) HEK-293. How it is done:
The human neuroblastoma cell line SH-SY5Y (ATCC® CRL-2266™) and HEK293 (ATCC® CRL-1573™) human embryonic kidney cells were grown in Dulbecco's Modified Eagle Medium/Nutrient Mixture F-12 (DMEM/F-12) culture containing 10% heat-inactivated fetal bovine serum (FBS) and 1% antibiotics. The cells were incubated at 37 °C in a humidified atmosphere of 5% CO2. Both cell lines were provided by the American Type Culture Collection (ATCC).[30,31]
SH-SY5Y (ATCC® CRL-2266™) and HEK293 (ATCC® CRL-1573™) cells were seeded into 96-well plates at a density of 5 × 10^3 cells per well, and allowed to adhere overnight in a humidified incubator at 37 °C with 5% CO2. After attachment, the cells were treated with eight different concentrations of the target compounds (200, 100, 50, 25, 12.5, 6.25, 3.125, and 1.5625 μM), prepared via serial 1 : 2 dilutions, for 24 hours. Each concentration was tested in triplicate.
(§1) Following treatment, 10 μL of MTT solution (5 mg mL^−1 in PBS) was added to each well and incubated for an additional 4 hours under the same conditions. At the end of the incubation period, the medium containing MTT was carefully removed, and the formazan crystals formed by viable cells were solubilized in 100 μL of DMSO per well. The absorbance was measured at 570 nm using a microplate reader. The net absorbance (after blank subtraction) was used to calculate the percentage cell viability relative to the untreated control cells, which was set at 100%. All results were expressed as mean ± standard deviation (SD) of three independent experiments.[32,33]

Another assay addresses α-glucosidase (Saccharomyces cerevisiae, UniProt P53341). Nature of the assay: α-Glucosidase inhibition assay (p-NPG substrate). The assay is classed as biochemical, yeast. How it is done:
For this assay, the yeast form of α-glucosidase was used and p-nitrophenyl-α-D-glycopyranoside (p-NPG) was used as the substrate. The required solutions of these materials were prepared in a phosphate buffer solution (pH of 7.4 and a concentration of 5 mM). […] Subsequently, a mixture containing 200 μL of phosphate solution, 50 μL of the substrate, and 5–200 μL of the sample solution was pre-incubated at 35 °C for 3 min for α-glucosidase.

The next assay concerns the target BChE (Homo sapiens, UniProt P06276). Description: biochemical.
The subject of assay [2] is SH-SY5Y neuroblastoma cells. Description: MTT cell viability assay, SH-SY5Y. The assay is classed as cell-based, human. The settings on record: for Selectivity (selectivity index): HEK293 versus SH-SY5Y; for IC50: read-out: IC50 (μM) SH-SY5Y. How it is done: The cells were incubated at 37 °C in a humidified atmosphere of 5% CO2. Both cell lines were provided by the American Type Culture Collection (ATCC).[30,31]
Each concentration was tested in triplicate.
as §1
(Tetrazolium assays rely on reduction of a dye to a coloured formazan, in cell work by metabolically active cells.)

Another assay addresses AChE (Homo sapiens, UniProt P22303). Description: biochemical. The assay is classed as biochemical.
[3] abbreviates: HEK293, 24 h treatment, MTT, mean ± SD (n = 3).
[4] abbreviates: Homo sapiens, SH-SY5Y, 24 h, 24 h treatment, MTT, mean ± SD (n = 3).
[5] abbreviates: 24 h treatment, MTT, mean ± SD (n = 3).
[6] abbreviates: read-out: IC50 (nM) α-Glucosidase.

Like-named read-outs stand apart in the source and are kept apart here.

BChE, sequence (P06276 29-602): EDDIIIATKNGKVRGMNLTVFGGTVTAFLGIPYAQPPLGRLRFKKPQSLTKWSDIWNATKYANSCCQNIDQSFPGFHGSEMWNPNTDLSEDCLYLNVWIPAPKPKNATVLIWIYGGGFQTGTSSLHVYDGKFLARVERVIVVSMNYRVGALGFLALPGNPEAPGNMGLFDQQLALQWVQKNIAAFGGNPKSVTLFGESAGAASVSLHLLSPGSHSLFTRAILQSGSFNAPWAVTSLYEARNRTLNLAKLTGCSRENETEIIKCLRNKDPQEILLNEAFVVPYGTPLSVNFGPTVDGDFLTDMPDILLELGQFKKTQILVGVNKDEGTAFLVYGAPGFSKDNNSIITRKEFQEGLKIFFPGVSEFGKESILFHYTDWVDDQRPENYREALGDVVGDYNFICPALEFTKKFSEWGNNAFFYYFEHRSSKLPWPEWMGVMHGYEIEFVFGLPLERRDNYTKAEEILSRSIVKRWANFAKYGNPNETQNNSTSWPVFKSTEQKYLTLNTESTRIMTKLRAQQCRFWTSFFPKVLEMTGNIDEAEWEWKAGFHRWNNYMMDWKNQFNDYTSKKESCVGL
α-glucosidase, sequence (P53341 whole entry): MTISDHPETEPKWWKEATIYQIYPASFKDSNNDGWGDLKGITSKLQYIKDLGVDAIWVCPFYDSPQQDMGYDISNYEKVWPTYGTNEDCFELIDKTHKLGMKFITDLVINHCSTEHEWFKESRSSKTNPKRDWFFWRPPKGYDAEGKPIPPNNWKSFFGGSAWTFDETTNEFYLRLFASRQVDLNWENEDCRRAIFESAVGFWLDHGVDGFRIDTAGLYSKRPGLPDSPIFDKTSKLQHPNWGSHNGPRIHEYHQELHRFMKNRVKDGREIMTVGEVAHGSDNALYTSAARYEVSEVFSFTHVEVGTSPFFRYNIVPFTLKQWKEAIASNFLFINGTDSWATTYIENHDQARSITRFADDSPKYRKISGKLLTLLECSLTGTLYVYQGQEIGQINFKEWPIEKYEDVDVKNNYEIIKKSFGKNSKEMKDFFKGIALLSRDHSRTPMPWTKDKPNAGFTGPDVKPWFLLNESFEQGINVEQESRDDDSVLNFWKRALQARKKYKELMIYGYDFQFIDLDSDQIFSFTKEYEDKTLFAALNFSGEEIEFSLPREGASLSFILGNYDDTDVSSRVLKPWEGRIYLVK
AChE, sequence (P22303 32-614): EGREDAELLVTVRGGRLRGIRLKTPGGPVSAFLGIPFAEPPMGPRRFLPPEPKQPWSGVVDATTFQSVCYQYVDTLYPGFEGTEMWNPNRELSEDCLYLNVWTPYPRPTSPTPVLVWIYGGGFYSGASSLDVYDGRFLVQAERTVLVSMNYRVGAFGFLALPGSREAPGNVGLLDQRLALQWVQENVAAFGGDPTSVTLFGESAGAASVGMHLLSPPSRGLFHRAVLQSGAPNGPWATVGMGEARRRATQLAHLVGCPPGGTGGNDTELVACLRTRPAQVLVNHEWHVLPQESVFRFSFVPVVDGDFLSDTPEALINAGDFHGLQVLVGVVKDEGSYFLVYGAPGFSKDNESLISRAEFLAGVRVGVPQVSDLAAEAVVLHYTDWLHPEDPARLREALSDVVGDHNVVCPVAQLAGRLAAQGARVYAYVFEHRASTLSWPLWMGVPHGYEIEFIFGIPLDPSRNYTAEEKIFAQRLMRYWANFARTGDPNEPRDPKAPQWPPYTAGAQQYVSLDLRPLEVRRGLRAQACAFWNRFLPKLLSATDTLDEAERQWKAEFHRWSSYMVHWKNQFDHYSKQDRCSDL

One may read the IC50 as the concentration that gives 50% inhibition. On to `O=C(Cn1cc(COc2ccc(/C=N/N=C/c3ccc(OCc4cn(CC(=O)Nc5ccc(Cl)cc5)nn4)cc3)cc2)nn1)Nc1ccc(Cl)cc1` [Compound 10j, 2,2′-((((((1E,1′E)-Hydrazine-1,2-diylidenebis(methaneylylidene))bis(4,1-phenylene))bis(oxy))bis(methylene))bis(1H-1,2,3-triazole-4,1-diyl))bis(N-(4-chlorophenyl)acetamide)], for which the 50% inhibitory concentration (IC50) was determined as 67.43 ± 0.47 µM in assay [1] (setting [3]); 34.3 ± 3.49 nM against α-glucosidase; 16.4 ± 4.43 nM at BChE; 6.75 ± 0.18 µM in assay [2] (setting [4]); 145 ± 6.23 nM at AChE (read-out: IC50 (nM) AChE). In addition, at α-glucosidase (relative to acarbose), the “folds more potent than the standard inhibitor acarbose against α-glucosidase” value is 1.7 fold. Moreover, the “Selectivity (selectivity index)” value in assay [2] amounted to 10.0. Also, the “fold diminished anti-AChE inhibitory activity relative to 10k” value at AChE (removal of 2-chloro substituent, versus 10k) is on record as 1.3 fold.
In the case of `O=C(Cn1cc(COc2ccc(/C=N/N=C/c3ccc(OCc4cn(CC(=O)Nc5cccc(Cl)c5)nn4)cc3)cc2)nn1)Nc1cccc(Cl)c1` [Compound 10i, 2,2′-((((((1E,1′E)-Hydrazine-1,2-diylidenebis(methaneylylidene))bis(4,1-phenylene))bis(oxy))bis(methylene))bis(1H-1,2,3-triazole-4,1-diyl))bis(N-(3-chlorophenyl)acetamide)], the concentration for half-maximal inhibition (IC50) in assay [1] (setting [3]) came to 37.4 ± 0.55 µM; against α-glucosidase, 45.8 ± 4.71 nM; at BChE, 15.3 ± 3.16 nM; in assay [2] (setting [4]), 4.26 ± 0.08 µM; at AChE (read-out: IC50 (nM) AChE) it was 164 ± 9.54 nM. In assay [2], the “Selectivity (selectivity index)” value was 8.8.
For the compound `CCc1ccc(NC(=O)Cn2cc(COc3ccc(/C=N/N=C/c4ccc(OCc5cn(CC(=O)Nc6ccc(CC)cc6)nn5)cc4)cc3)nn2)cc1` [Compound 10f, 2,2′-((((((1E,1′E)-Hydrazine-1,2-diylidenebis(methaneylylidene))bis(4,1-phenylene))bis(oxy))bis(methylene))bis(1H-1,2,3-triazole-4,1-diyl))bis(N-(4-ethylphenyl)acetamide)], the IC50 in assay [1] (setting [3]) came out at 33.2 ± 0.55 µM; on α-glucosidase it was 66.4 ± 4.43 nM; at BChE it was 17 ± 5.46 nM; in assay [2] (setting [4]), 7.33 ± 0.11 µM; on AChE (read-out: IC50 (nM) AChE), 159 ± 6.17 nM. Further, the “Selectivity (selectivity index)” value in assay [2] was determined as 4.5.
As to `COc1ccc(NC(=O)Cn2cc(COc3ccc(/C=N/N=C/c4ccc(OCc5cn(CC(=O)Nc6ccc(OC)cc6OC)nn5)cc4)cc3)nn2)c(OC)c1` [Compound 10e, 2,2′-((((((1E,1′E)-Hydrazine-1,2-diylidenebis(methaneylylidene))bis(4,1-phenylene))bis(oxy))bis(methylene))bis(1H-1,2,3-triazole-4,1-diyl))bis(N-(2,4-dimethoxyphenyl)acetamide)], the IC50 in assay [1] (setting [3]) was 68.95 ± 0.41 µM; on α-glucosidase, 58.5 ± 4.27 nM; on BChE, 16.3 ± 2.09 nM; in assay [2] (setting [5]), 33.19 ± 0.25 µM; in assay [2] (setting [4]), more than 30 µM; at AChE (read-out: IC50 (nM) AChE), 140 ± 9.43 nM. In addition, the “Selectivity (selectivity index)” value in assay [2] came out at 2.1.
Regarding `Cc1cccc(NC(=O)Cn2cc(COc3ccc(/C=N/N=C/c4ccc(OCc5cn(CC(=O)Nc6cccc(C)c6)nn5)cc4)cc3)nn2)c1` [Compound 10b, 2,2′-((((((1E,1′E)-Hydrazine-1,2-diylidenebis(methaneylylidene))bis(4,1-phenylene))bis(oxy))bis(methylene))bis(1H-1,2,3-triazole-4,1-diyl))bis(N-(m-tolyl)acetamide)], the IC50 was 43.42 ± 0.36 µM in assay [1] (setting [3]); 62.1 ± 5.43 nM at α-glucosidase; 18.3 ± 4.84 nM at BChE; 15.8 ± 0.2 µM in assay [2] (setting [4]); 167 ± 9.46 nM at AChE (read-out: IC50 (nM) AChE). Moreover, the “Selectivity (selectivity index)” value in assay [2] is listed as 2.7.
Consider `O=C(Cn1cc(COc2ccc(/C=N/N=C/c3ccc(OCc4cn(CC(=O)Nc5ccccc5[N+](=O)[O-])nn4)cc3)cc2)nn1)Nc1ccccc1[N+](=O)[O-]` [Compound 10m, 2,2′-((((((1E,1′E)-Hydrazine-1,2-diylidenebis(methaneylylidene))bis(4,1-phenylene))bis(oxy))bis(methylene))bis(1H-1,2,3-triazole-4,1-diyl))bis(N-(2-nitrophenyl)acetamide)], for which the IC50 stood at 46.45 ± 0.45 µM in assay [1] (HEK293, 24 h); 36.6 ± 4.86 nM on α-glucosidase (setting [6]); 16.9 ± 4.83 nM against BChE; 28.33 ± 0.26 µM in assay [2] (Homo sapiens, SH-SY5Y, 24 h); 157 ± 8.65 nM against AChE. Further, the “Selectivity (selectivity index)” value in assay [2] amounted to 1.6.
With `CNC(=O)c1cc(Oc2ccc(NC(=O)Nc3ccc(Cl)c(C(F)(F)F)c3)cc2)ccn1` [Sorafenib, reference compound], the half-maximal inhibitory concentration (IC50) in assay [1] (setting [3]) is 16.22 ± 0.14 µM; in assay [2] (setting [4]), 3.88 ± 0.12 µM.
On to `O=C(Cn1cc(COc2ccc(/C=N/N=C/c3ccc(OCc4cn(CC(=O)Nc5ccc([N+](=O)[O-])cc5)nn4)cc3)cc2)nn1)Nc1ccc([N+](=O)[O-])cc1` [Compound 10n, 2,2′-((((((1E,1′E)-Hydrazine-1,2-diylidenebis(methaneylylidene))bis(4,1-phenylene))bis(oxy))bis(methylene))bis(1H-1,2,3-triazole-4,1-diyl))bis(N-(4-nitrophenyl)acetamide)], for which the 50% inhibitory concentration (IC50) came out at 38.42 ± 0.19 µM in assay [1] (HEK293, 24 h); 65.1 ± 6.01 nM on α-glucosidase (setting [6]); 13.9 ± 4.3 nM against BChE; 5.22 ± 0.12 µM in assay [2] (Homo sapiens, SH-SY5Y, 24 h); 173 ± 9.71 nM on AChE. The “Selectivity (selectivity index)” value in assay [2] is 7.4.
On to `Cc1cccc(NC(=O)Cn2cc(COc3ccc(/C=N/N=C/c4ccc(OCc5cn(CC(=O)Nc6cccc(C)c6C)nn5)cc4)cc3)nn2)c1C` [Compound 10d, 2,2′-((((((1E,1′E)-Hydrazine-1,2-diylidenebis(methaneylylidene))bis(4,1-phenylene))bis(oxy))bis(methylene))bis(1H-1,2,3-triazole-4,1-diyl))bis(N-(2,3-dimethylphenyl)acetamide)], for which the IC50 in assay [1] (setting [3]) is 75.22 ± 0.35 µM; against α-glucosidase, 71.2 ± 8.14 nM; against BChE, 14.9 ± 2.08 nM; in assay [2] (setting [5]) it was 16.4 ± 0.21 µM; in assay [2] (setting [4]), 12 to 16 µM; on AChE (read-out: IC50 (nM) AChE), 131 ± 7.23 nM. Besides, the “Selectivity (selectivity index)” value in assay [2] turned out to be 4.6.
Consider `O=C(Cn1cc(COc2ccc(/C=N/N=C/c3ccc(OCc4cn(CC(=O)Nc5ccccc5F)nn4)cc3)cc2)nn1)Nc1ccccc1F` [Compound 10g, 2,2′-((((((1E,1′E)-Hydrazine-1,2-diylidenebis(methaneylylidene))bis(4,1-phenylene))bis(oxy))bis(methylene))bis(1H-1,2,3-triazole-4,1-diyl))bis(N-(2-fluorophenyl)acetamide)], for which the half-maximal inhibitory concentration (IC50) in assay [1] (setting [3]) amounted to 86.45 ± 0.52 µM; against α-glucosidase, 56.7 ± 6.34 nM; against BChE, 12.4 ± 3.21 nM; in assay [2] (setting [4]), 12.9 ± 0.13 µM; on AChE (read-out: IC50 (nM) AChE), 112 ± 9.6 nM. The “Selectivity (selectivity index)” value in assay [2] is listed as 6.7.
Consider `Cc1ccccc1NC(=O)Cn1cc(COc2ccc(/C=N/N=C/c3ccc(OCc4cn(CC(=O)Nc5ccccc5C)nn4)cc3)cc2)nn1` [Compound 10a, 2,2′-((((((1E,1′E)-Hydrazine-1,2-diylidenebis(methaneylylidene))bis(4,1-phenylene))bis(oxy))bis(methylene))bis(1H-1,2,3-triazole-4,1-diyl))bis(N-(o-tolyl)acetamide)], for which the half-inhibitory concentration (IC50) was 78.21 ± 0.42 µM in assay [1] (setting [3]); 43.1 ± 8.21 nM at α-glucosidase; 18.4 ± 3.09 nM against BChE; 8.22 ± 0.12 µM in assay [2] (setting [4]); 163 ± 5.38 nM at AChE (read-out: IC50 (nM) AChE). Moreover, the “Selectivity (selectivity index)” value in assay [2] was determined as 9.5.
In the case of `Cc1ccc(NC(=O)Cn2cc(COc3ccc(/C=N/N=C/c4ccc(OCc5cn(CC(=O)Nc6ccc(C)cc6)nn5)cc4)cc3)nn2)cc1` [Compound 10c, 2,2′-((((((1E,1′E)-Hydrazine-1,2-diylidenebis(methaneylylidene))bis(4,1-phenylene))bis(oxy))bis(methylene))bis(1H-1,2,3-triazole-4,1-diyl))bis(N-(p-tolyl)acetamide)], the half-inhibitory concentration (IC50) is 46.91 ± 0.32 µM in assay [1] (setting [3]); 67 ± 7.88 nM at α-glucosidase; 17.1 ± 3.21 nM at BChE; 11.9 ± 0.2 µM in assay [2] (setting [5]); 12 to 16 µM in assay [2] (setting [4]); 164 ± 9.7 nM on AChE (read-out: IC50 (nM) AChE). For the same compound, the “Selectivity (selectivity index)” value in assay [2] worked out at 3.9.
